In US7101878B1 (Agouron Pharmaceuticals, Inc., priority 1998, dated 2006):
Read-outs that look alike come from different tables or passages of the source.

Columns and labels:
[1] = Metabolism rate, pmol/min/mg at 1 μM, human; assay type: in vitro ADME; settings: 1 μM compound
mouse GnRH receptor = biological target: T1, mouse GnRH receptor (Mus musculus, UniProt Q01776); assay: Radioligand binding, 125I-GnRH-A, 293 cells expressing mouse GnRH receptors
T1 construct: expressed in transfected cells; host or cells: 293 cells
T1 sequence (Q01776 1-327): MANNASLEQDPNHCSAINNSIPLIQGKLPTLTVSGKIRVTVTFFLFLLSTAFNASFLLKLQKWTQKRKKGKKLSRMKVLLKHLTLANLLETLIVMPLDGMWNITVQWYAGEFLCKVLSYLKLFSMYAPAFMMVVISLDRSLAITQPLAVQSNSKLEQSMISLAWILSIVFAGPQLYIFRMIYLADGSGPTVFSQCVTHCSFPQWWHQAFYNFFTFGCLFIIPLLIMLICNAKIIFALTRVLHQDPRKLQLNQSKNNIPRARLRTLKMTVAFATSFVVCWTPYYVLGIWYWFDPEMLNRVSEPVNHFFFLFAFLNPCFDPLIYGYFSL
In short: (§1)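 Bound label captured on 0.1% polyethyleneimine-treated GF/C filters, washed three times with PBS, counted. IC50 derived; identical set-up for every species.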

[2] = Metabolism rate, pmol/min/mg at 1 μM, rat female; assay type: in vitro ADME; settings: 1 μM compound
rat GnRH receptor = biological target: T2, rat GnRH receptor (Rattus norvegicus, UniProt P30969); assay: Radioligand binding, 125I-GnRH-A, rat pituitary membranes; design: membranes were prepared from rat pituitary; from tissue; host or cells: rat pituitary
T2 sequence (P30969 1-327): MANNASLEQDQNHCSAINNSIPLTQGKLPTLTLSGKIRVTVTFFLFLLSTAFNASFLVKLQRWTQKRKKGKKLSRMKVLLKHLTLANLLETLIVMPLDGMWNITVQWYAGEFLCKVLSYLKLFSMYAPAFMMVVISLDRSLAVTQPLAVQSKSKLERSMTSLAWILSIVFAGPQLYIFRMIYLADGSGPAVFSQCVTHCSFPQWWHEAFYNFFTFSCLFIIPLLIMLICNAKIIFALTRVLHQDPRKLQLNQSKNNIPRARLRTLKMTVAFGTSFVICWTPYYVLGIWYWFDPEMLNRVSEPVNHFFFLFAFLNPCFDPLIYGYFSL
In short: as §1

human GnRH receptor = biological target: T3, human GnRH receptor (Homo sapiens, UniProt P30968); assay: Radioligand binding, 125I-GnRH-A displacement, membranes of HEK 293 cells with human GnRH receptor
T3 construct: expressed in transfected cells; host or cells: HEK 293 (hGnRH-R/293, from Dr. Stuart Sealfon)
T3 sequence (P30968 1-328): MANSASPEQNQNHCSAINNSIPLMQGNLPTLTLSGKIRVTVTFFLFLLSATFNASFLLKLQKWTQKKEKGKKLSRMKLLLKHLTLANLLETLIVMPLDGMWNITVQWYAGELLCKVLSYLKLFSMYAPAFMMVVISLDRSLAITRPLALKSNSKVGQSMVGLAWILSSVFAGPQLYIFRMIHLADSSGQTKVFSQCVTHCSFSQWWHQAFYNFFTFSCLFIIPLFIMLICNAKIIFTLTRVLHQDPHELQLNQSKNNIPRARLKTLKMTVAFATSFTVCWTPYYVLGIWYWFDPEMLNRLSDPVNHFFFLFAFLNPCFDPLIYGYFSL
In short: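 After filtration and PBS washes, bound radioactivity was counted by scintillation and IC50 derived. Identical conditions applied for non-human receptors.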

[3] = Metabolism rate, pmol/min/mg at 1 μM, rat male; assay type: in vitro ADME; settings: 1 μM compound
[4] = Pharmacokinetic studies / bioavailability in rats; assay type: in vivo, rat; settings: for Cmax / Tmax / half-life: rat, plasma; for Cmax / Tmax: po, p.o. 10 mg/kg; for Cmax / Tmax / Fp.o.: 5 mg/ml solution in 10% DMSO 10% cremophor 80% saline
bovine GnRH receptor = biological target: T4, bovine GnRH receptor (Bos taurus, UniProt P32236); assay: Radioligand binding, 125I-GnRH-A, bovine pituitary membranes
T4 construct: membranes were prepared from bovine pituitary; from tissue; host or cells: bovine pituitary
T4 sequence (P32236 1-328): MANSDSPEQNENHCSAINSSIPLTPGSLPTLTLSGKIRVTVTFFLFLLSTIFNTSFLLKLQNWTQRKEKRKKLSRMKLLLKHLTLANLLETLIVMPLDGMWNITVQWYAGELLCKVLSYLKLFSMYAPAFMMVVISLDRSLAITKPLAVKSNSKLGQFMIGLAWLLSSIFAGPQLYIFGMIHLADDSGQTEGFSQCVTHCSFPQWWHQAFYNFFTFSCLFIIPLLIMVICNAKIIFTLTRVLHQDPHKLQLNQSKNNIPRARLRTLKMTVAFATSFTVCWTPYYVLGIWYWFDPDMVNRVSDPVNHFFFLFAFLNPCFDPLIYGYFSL
Protocol: All compounds were diluted in 1% DMSO (final assay concentration) in binding assay buffer. […] Reactions were terminated by rapid filtration onto 96-well Packard GF/C filters soaked in 0.1% polyethyleneimine. Filters were washed three times with PBS buffer, dried and counted on a Packard Topcount by liquid scintillation counting.
Assay conditions were identical for assessing compound activities at other species. […] IC50 values for control peptides and test compounds were calculated utilizing GraphPad Prism™ software.
The reaction mixture was vortexed and incubated for 1 min at room temperature. After one min, the mixture was vortexed and allowed to incubate for an additional minute. 2 ml of 0.5 M acetic acid/1% BSA was added to the reaction tube and the mixture was added to a C18 Sep-Pak cartridge. The cartridge was washed with subsequent washes of 5 ml H2O and 5 ml 0.5M acetic acid and then eluted with 5×1 ml of 60% CH3CN/40% 0.5M acetic acid. The eluate was diluted with 3× volume of HPLC buffer A (0.1% TFA in H2O) and loaded onto a C18 column. […] The radioactive fractions (750 ed/fraction) are collected into clean polypropylene tubes containing 100 μl of 10% BSA. Fractions were assessed for biological activity by radioligand binding.

[5] = means ± SE of at least three experiments performed in duplicate, read-out: Human IC50
[6] = second value marked * (mostly in parentheses), asterisk not explained, read-out: hGnRH IC50, value marked *

| Human pmol/min/mg 1 μM [1] | IC50 (mouse GnRH receptor; read-out: mGnRH IC50) | Rat female pmol/min/mg 1 μM [2] | IC50 (rat GnRH receptor; read-out: rGnRH IC50) | IC50 (human GnRH receptor; read-out: hGnRH IC50) | Rat male pmol/min/mg 1 μM [3] | Cmax ([4]; female, 10 mg/kg, rat female) | Tmax ([4]; female, 10 mg/kg, rat female) | half-life ([4]; female, rat female) | Fp.o. ([4]; rat female) | IC50 (mouse GnRH receptor; means ± SE of at least three experiments performed in duplicate, read-out: Mouse IC50) | IC50 (rat GnRH receptor; means ± SE of at least three experiments performed in duplicate, read-out: Rat IC50) | IC50 (bovine GnRH receptor; means ± SE of at least three experiments performed in duplicate, read-out: Bovine IC50) | IC50 (human GnRH receptor; [5]) | half-life ([4]; male, iv, 10 mg/kg, rat male) | IC50 (bovine GnRH receptor; read-out: bGnRH IC50) | IC50 (human GnRH receptor; [6]) | Compound |
| --- | --- | --- | --- | --- | --- | --- | --- | --- | --- | --- | --- | --- | --- | --- | --- | --- | --- |
| 181 pmol/min/mg | 15 nM | 181 pmol/min/mg | 9.6 nM | 92 nM | 3387 pmol/min/mg | 80 nM | 4 h | 1.5 h | 10% (10 mg/kg)^10 | – | – | – | – | – | – | – | COc1cc2c(cc1Cc1ccc(C(=O)NCc3cccc(CNc4ccnc(NC[C@H]5CCCO5)n4)c3)o1)C(C)(C)CCC2(C)C (stereo in doubt) [Compound 199] |
| – | 115 nM | – | 40 nM | 55 nM | – | – | – | – | – | 115 ± 25 nM | 40 ± 3 nM | 460 ± 90 nM | 55 ± 11 nM | 0.917 h | – | – | Cc1ccc(CNC(=O)c2ccc(Cc3cc4c(cc3C)C(C)(C)CCC4(C)C)o2)cc1C [Compound 18] |
| – | 160 nM | – | 60 nM | 50 nM | – | – | – | – | – | – | – | – | 50 ± 3 nM | 0.717 h | 605 nM | – | CC(=O)c1cccc(NC(=O)c2ccc(Cc3cc4c(cc3C)C(C)(C)CCC4(C)C)o2)c1 [Compound 19] |
| 185 pmol/min/mg | 490 nM | – | 210 nM | 140 nM | 1606 pmol/min/mg | – | – | – | – | – | – | – | – | – | 1400 nM | – | Cc1cccc(CNC(=O)c2ccc(Cc3cc4c(cc3C)C(C)(C)CCC4(C)C)o2)c1 [Compound 41] |
| 361 pmol/min/mg | 280 nM | – | 100 nM | 75 nM | 1387 pmol/min/mg | – | – | – | – | – | – | – | – | 0.967 h | 1780 nM | 65 nM | COc1ccc(CNC(=O)c2ccc(Cc3cc4c(cc3C)C(C)(C)CCC4(C)C)o2)cc1 [Compound 42] |
| 459 pmol/min/mg | 610 nM | – | 510 nM | 390 nM | 1759 pmol/min/mg | – | – | – | – | – | – | – | – | 0.917 h | 4440 nM | 120 nM | Cc1cc2c(cc1Cc1ccc(C(=O)NCc3cccs3)o1)C(C)(C)CCC2(C)C [Compound 44] |
| 485 pmol/min/mg | 1880 nM | – | 900 nM | – | 1781 pmol/min/mg | – | – | – | – | – | – | – | – | 0.917 h | 8700 nM | 330 nM | Cc1cc2c(cc1Cc1ccc(C(=O)NCc3ccccc3F)o1)C(C)(C)CCC2(C)C [Compound 46] |
| 392 pmol/min/mg | 240 nM | – | 130 nM | 230 nM | 2198 pmol/min/mg | – | – | – | – | – | – | – | – | 1.5 h | 1920 nM | 80 nM | Cc1cc2c(cc1Cc1ccc(C(=O)NCCOc3ccccc3)o1)C(C)(C)CCC2(C)C [Compound 47] |
| 392 pmol/min/mg | 400 nM | – | 120 nM | 150 nM | 1877 pmol/min/mg | – | – | – | – | – | – | – | – | – | 1930 nM | – | Cc1cc2c(cc1Cc1ccc(C(=O)NCc3ccccc3Cl)o1)C(C)(C)CCC2(C)C [Compound 51] |
| 392 pmol/min/mg | 220 nM | – | 70 nM | 100 nM | 3412 pmol/min/mg | – | – | – | – | – | – | – | – | 2.6 h | 1000 nM | – | COc1ccc(CNC(=O)c2ccc(Cc3cc4c(cc3C)C(C)(C)CCC4(C)C)o2)c(OC)c1 [Compound 56] |
| 278 pmol/min/mg | 85 nM | – | 84 nM | 130 nM | 4226 pmol/min/mg | – | – | – | – | – | – | – | – | – | 1440 nM | – | COC(=O)c1ccc(OC)c(NC(=O)c2ccc(Cc3cc4c(cc3C)C(C)(C)CCC4(C)C)o2)c1 [Compound 72] |
| 594 pmol/min/mg | 360 nM | 182 pmol/min/mg | 400 nM | 200 nM | – | 230 nM | 1 h | 7.9 h | 1% (10 mg/kg)^10 | – | – | – | – | – | – | – | Cc1cc2c(cc1Cc1ccc(C(=O)NCc3ccc(CNc4ncccn4)cc3)o1)C(C)(C)CCC2(C)C [Compound 137] |
| 750 pmol/min/mg | 14 nM | 205 pmol/min/mg | 35 nM | 18 nM | 5978 pmol/min/mg | – | – | – | – | – | – | – | – | – | – | – | CCOc1cccc(OCC)c1NC(=O)c1ccc(Cc2cc3c(cc2C)C(C)(C)CCC3(C)C)o1 [Compound 194] |
| 157 pmol/min/mg | – | 159 pmol/min/mg | – | 200 nM | 1236 pmol/min/mg | 2810 nM | 1 h | 1.6 h | 41% (10 mg/kg)^10 | – | – | – | – | – | – | – | Cc1ccc(C(C)(C)C)cc1Cc1ccc(C(=O)Nc2ccc3[nH]ccc3c2)o1 [Compound 207] |
| 322 pmol/min/mg | 62 nM | 430 pmol/min/mg | 12 nM | 80 nM | 3282 pmol/min/mg | 50 nM | 1 h | 1.6 h | 1% (10 mg/kg)^10 | – | – | – | – | – | – | – | Cc1ccc(C(C)(C)C)cc1Cc1ccc(C(=O)NCc2cccc(CNc3ccnc(NC[C@H]4CCCO4)n3)c2)o1 [Compound 212] |
| 483 pmol/min/mg | 11 nM | 203 pmol/min/mg | 21 nM | 29 nM | 953 pmol/min/mg | 100 nM | 1 h | 3.8 h | 16% (10 mg/kg)^10 | – | – | – | – | – | – | – | COc1cc2c(cc1Cc1ccc(C(=O)Nc3c(OC)cc(OC)c(C#N)c3OC)o1)C(C)(C)CCC2(C)C [Compound 217] |
